{"source": "patent US20240342066A1", "about": "“HIGH POTENCY EMULSIONS” (Vertosa Inc., priority 0001, published 2024)", "test_system": "skin", "assay": "Patch test for skin irritation and allergy", "type": "in vivo, human", "conditions": "positive control", "method": "These three emulsions were first evaluated for skin irritation and allergy studies using a patch test at a third-party skin care evaluation lab. The three pure emulsion formulas were tested at 20 mg/mL concentration on the patch on 55 subjects.\nThe patches were prepared with each of the 3 different emulsion types separately. Each emulsion was prepared at 20 mg/g. The test was focused on the effects of the emulsion without the influence of any other skin care ingredients. The goal was to stress test if pure emulsion can cause any skin irritation. […]\nBelow is the procedure of the patch test: • Step 1: Subjects were requested to bathe or wash as usual before arrival at the facility. • Step 2: Patches containing the test material were then affixed directly to the skin of the intrascapular regions of the back, to the right or left of the midline, and subjects were dismissed with instructions not to wet or expose the test area to direct sunlight. • Step 3: Patches remained in place for 48 hours after the first application. […] Test sites were evaluated by trained laboratory personnel 48 and 96 hours after application. • Step 7: In the event of an adverse reaction, the area of erythema and edema were measured. […]", "data": [{"smiles": "CCCCCCCCCCCCOS(=O)(=O)[O-].[Na+]", "note": "[2.0% Sodium Lauryl Sulfate Solution, Sodium Lauryl Sulfate]", "values": [{"measurement": "subjects with a Grade 1 reaction", "result": 8, "unit": "subjects"}]}]}
